Literature values in patent US9820956B2, “Compositions and methods for treating metabolic disorders” (PreKUlab, Ltd., priority 2003, dated 2017).
Read-outs that look alike come from different tables or passages of the source.

Legend:
[1] = system: BBB transport system for basic amino acids
[2] = system: BBB transport system for acidic amino acids
[3] = system: intestinal epithelia transport
[4] = system: Phe transport in Caco-2 cells; settings: for % inhibition of Phe transport: 10 μM Phe, 1 mM of each competing amino acid, Caco-2 monolayers; for inhibition of Phe transport in human intestinal epithelial cells (in words): Caco-2
[5] = system: LNAA transport system in the BBB
[6] = absolute Km at BBB, basic amino acids, read-out: Km
[7] = apparent Km at BBB, basic aa's, read-out: Km(app)
[8] = absolute Km at BBB, neutral amino acid system, read-out: Km
[9] = apparent Km at BBB in presence of competing LNAAs, LNAA's, read-out: Km(app)

## N=C(N)NCCC[C@H](N)C(=O)O [Arg, arginine]
[1]; [6]
  Km: 90 µM
[1]; [7]
  Km: 400 µM

## N[C@@H](CCC(=O)O)C(=O)O [Glu]
[2]
  Km: 40 µM

## N[C@@H](Cc1c[nH]cn1)C(=O)O [His, histidine]
[3]
  Km: 6000 µM
[4]
  % inhibition of Phe transport: 33%
[1]; [6]
  Km: 280 µM
[1]; [7]
  Km: 1100 µM

## CC(C)C[C@H](N)C(=O)O [Leu, leucine]
[3]
  Km: 2000 µM
[4]
  % inhibition of Phe transport: 55%
  inhibition of Phe transport in human intestinal epithelial cells (in words): strong inhibitor
[5]; [8]
  Km: 150 µM
[5]; [9]
  Km: 530 µM

## NCCCC[C@H](N)C(=O)O [Lys, lysine]
[4]
  % inhibition of Phe transport: 50%
  inhibition of Phe transport in human intestinal epithelial cells (in words): strong inhibition
[1]; [6]
  Km: 100 µM
[1]; [7]
  Km: 250 µM

## CSCC[C@H](N)C(=O)O [Met, methionine]
[3]
  Km: 5000 µM
[5]; [8]
  Km: 190 µM
[5]; [9]
  Km: 770 µM

## N[C@@H](Cc1ccccc1)C(=O)O [Phe, phenylalanine]
[3]
  Km: 1000 µM
[4]; Caco-2, measured by Hidalgo, read-out: Km for Phe at the intestinal cell transport system
  Km: 560 µM
[5]; [8]
  Km: 120 µM
[5]; [9]
  Km: 450 µM

## C[C@@H](O)[C@H](N)C(=O)O [Threo]
[5]; [8]
  Km: 730 µM
[5]; [9]
  Km: 3000 µM

## N[C@@H](Cc1c[nH]c2ccccc12)C(=O)O [Trp, tryptophan]
[4]
  % inhibition of Phe transport: 36%
[5]; [8]
  Km: 190 µM
[5]; [9]
  Km: 710 µM

## N[C@@H](Cc1ccc(O)cc1)C(=O)O [Tyr, tyrosine]
[4]
  % inhibition of Phe transport: 45%
[5]; [8]
  Km: 160 µM
[5]; [9]
  Km: 580 µM

## CC(C)[C@H](N)C(=O)O [Val, valine]
[3]
  Km: 3000 µM
[5]; [8]
  Km: 630 µM
[5]; [9]
  Km: 2500 µM

## CC[C@H](C)[C@H](N)C(=O)O [iLeu, isoleucine]
[5]; [8]
  Km: 330 µM
[5]; [9]
  Km: 1300 µM
